Measured values published in ChEMBL document CHEMBL1201862, “PubChem BioAssay data set” (2004).
Activity calls are given as the source filed them.

What was measured:
Assay type in all cases: functional
[1] = biological target: Melanin-concentrating hormone receptor 1 (Homo sapiens, UniProt Q99705); experiment: Late-stage fluorescence-based counterscreen for antagonists of the G-protein coupled receptor 7 (GPR7): cell-based dose response assay to identify antagonists of the melanin-concentrating hormone receptor 1 (MCHR1) Set 6.
[2] = biological target: T1, Neuropeptides B/W receptor type 1 (Homo sapiens, UniProt P48145); experiment: human NPBW1 receptor blockade, IC50 – cell-based, fluorescence, dose response, set 6, late-stage follow-up (AID 588583)
T1 sequence (P48145 whole entry): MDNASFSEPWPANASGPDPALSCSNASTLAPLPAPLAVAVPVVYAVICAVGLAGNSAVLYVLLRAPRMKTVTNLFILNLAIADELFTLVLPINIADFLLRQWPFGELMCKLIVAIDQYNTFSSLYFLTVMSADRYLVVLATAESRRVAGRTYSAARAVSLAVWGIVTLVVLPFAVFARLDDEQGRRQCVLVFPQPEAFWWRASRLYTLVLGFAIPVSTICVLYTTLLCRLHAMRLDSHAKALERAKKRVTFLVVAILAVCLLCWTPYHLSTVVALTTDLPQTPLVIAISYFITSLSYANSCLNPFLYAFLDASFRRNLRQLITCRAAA

[3] = reduction of Shn3 3'UTR-driven luciferase in osteoblasts – cell-based, Clone20 osteoblasts, firefly luciferase, cherry-picked, dose response (AID 624132);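 further: firefly luciferase luminescence from reporter carrying the Shn3 3'UTR in osteoblasts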
[4] = biological target: T2, High affinity choline transporter 1 (Homo sapiens, UniProt Q9GZV3); experiment: human choline transporter blockers, potency – cell-based, 10-point CRC, membrane potential dye, dose response (AID 588401);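 further: membrane potential dye fluorescence of choline-evoked depolarization via CHT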
T2 sequence (Q9GZV3 whole entry): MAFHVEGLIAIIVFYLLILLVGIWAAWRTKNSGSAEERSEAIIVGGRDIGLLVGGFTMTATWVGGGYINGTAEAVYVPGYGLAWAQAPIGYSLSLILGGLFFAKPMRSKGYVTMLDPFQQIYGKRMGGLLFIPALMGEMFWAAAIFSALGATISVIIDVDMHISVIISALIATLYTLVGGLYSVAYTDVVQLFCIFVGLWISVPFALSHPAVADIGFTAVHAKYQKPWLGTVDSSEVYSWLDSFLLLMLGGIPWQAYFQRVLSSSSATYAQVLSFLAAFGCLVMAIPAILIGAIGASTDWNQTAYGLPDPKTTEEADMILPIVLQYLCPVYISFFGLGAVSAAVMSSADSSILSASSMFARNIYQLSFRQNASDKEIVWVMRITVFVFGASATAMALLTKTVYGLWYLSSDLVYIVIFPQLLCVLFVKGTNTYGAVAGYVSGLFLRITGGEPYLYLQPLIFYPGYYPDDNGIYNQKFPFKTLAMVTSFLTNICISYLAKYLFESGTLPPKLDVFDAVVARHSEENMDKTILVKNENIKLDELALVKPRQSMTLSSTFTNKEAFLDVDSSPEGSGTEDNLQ

[5] = biological target: T3, Replicative DNA helicase DnaB (Mycobacterium tuberculosis, UniProt P9WMR3); experiment: DnaB intein splicing inhibitors, dose response, biochemical, cell-free fluorescence (AID 449749)
T3 sequence (P9WMR3 whole entry): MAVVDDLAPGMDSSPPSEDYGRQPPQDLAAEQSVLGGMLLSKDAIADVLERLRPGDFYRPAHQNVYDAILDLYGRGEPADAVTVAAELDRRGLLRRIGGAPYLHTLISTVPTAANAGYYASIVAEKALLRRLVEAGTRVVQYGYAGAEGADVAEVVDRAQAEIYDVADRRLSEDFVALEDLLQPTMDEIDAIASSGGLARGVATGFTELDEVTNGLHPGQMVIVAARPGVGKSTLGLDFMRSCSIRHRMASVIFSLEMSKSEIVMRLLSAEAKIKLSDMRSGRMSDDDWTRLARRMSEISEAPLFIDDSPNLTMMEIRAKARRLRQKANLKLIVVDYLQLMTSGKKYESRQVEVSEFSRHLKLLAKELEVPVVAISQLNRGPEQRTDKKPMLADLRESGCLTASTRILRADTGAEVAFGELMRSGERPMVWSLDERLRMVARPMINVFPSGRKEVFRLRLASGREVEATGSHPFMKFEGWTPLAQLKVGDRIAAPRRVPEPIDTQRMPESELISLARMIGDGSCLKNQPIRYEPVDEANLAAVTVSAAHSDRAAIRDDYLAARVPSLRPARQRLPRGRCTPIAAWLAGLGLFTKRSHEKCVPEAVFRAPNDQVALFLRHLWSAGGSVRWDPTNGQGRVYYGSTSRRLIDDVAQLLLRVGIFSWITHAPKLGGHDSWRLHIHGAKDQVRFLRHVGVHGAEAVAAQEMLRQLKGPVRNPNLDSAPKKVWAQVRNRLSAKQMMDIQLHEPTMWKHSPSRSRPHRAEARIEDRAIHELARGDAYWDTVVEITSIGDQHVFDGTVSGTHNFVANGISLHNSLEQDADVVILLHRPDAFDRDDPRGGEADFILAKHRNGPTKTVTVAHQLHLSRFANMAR

[6] = loss of viability in HepG2 cells – cell-based, CellTiter-Glo, cherry-picked, cytotoxicity control for Shn3 inhibitor project, dose response (AID 624134)
Protein RecA = biological target: T4, Protein RecA (Mycobacterium tuberculosis, UniProt P9WHJ3); experiment: Fluorescence Cell-Free Homogeneous Dose Retest to Identify Inhibitors of RecA-Intein Splicing Activity. [Related pubchem assays (depositor defined):AID2097, AID2223, AID489010, AID492950]
T4 sequence (P9WHJ3 whole entry): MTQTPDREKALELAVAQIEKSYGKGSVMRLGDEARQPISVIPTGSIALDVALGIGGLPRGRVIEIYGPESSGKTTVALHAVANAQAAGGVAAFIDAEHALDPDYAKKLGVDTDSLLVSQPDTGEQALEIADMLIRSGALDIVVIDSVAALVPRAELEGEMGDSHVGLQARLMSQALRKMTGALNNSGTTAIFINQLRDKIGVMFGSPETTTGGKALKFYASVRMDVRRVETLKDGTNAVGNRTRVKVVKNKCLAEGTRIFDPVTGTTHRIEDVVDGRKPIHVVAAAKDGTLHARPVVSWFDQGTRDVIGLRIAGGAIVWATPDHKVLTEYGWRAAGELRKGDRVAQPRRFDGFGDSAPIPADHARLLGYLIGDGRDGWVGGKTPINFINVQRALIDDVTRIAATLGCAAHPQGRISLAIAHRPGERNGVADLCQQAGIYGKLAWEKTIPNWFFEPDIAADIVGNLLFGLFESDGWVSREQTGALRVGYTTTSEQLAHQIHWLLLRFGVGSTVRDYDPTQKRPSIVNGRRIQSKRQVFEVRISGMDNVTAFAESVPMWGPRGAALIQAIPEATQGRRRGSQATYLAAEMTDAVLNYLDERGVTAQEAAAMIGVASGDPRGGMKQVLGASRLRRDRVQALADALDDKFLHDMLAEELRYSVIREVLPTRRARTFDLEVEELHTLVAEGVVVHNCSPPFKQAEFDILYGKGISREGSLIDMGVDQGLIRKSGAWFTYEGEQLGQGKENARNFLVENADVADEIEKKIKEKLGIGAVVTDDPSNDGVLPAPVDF

[7] = non-specific 3'UTR reporter inhibition in Clone20-Shn3RL – cell-based, Renilla luciferase, cherry-picked, counter-screen for Shn3 inhibitor project, dose response (AID 624133)
Vero = experiment: cells; settings: Chlorocebus sabaeus
[8] = biological target: T2, High affinity choline transporter 1; experiment: human choline transporter blockers, potency – cell-based, 5-point CRC, membrane potential dye, dose response (AID 504840)

Sequence of Melanin-concentrating hormone receptor 1 (Q99705 whole entry): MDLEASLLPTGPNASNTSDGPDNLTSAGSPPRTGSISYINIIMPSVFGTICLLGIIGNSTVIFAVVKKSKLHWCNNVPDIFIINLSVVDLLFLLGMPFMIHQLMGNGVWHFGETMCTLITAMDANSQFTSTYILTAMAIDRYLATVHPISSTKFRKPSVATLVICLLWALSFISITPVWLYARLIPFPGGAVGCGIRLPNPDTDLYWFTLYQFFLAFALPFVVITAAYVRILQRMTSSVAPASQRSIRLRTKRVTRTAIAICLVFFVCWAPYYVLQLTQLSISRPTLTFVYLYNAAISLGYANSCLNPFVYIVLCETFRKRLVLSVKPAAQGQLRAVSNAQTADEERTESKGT

Structure (SMILES)	IC50 [1]	IC50 [2]	AC50 [3]	IC50 [4]	AC50 [5]	AC50 [6]	EC50 (Protein RecA)	AC50 [7]	CC50 (Vero)	IC50 [8]
O=c1c(-c2cccc(F)c2)c(Br)cnn1Cc1cccc2ccccc12	0.533 µM (active)	0.533 µM (active)								
Cc1nnc(NC(=O)c2nc(S(=O)(=O)Cc3ccccc3)ncc2Cl)s1			1.34 µM (active)	4.47 µM (active)	17.8 µM (active)	> 70 µM (inactive)	4.01 µM (active)	12.8 µM (active)	17.8 µM (active)	7.31 µM (active)
